Data as given in PMC10673369, “Preliminary SAR of Novel Pleuromutilin–Polyamine Conjugates” (Microorganisms, 2023).

Legend:
P. aeruginosa ATCC 27853 = experiment: Antibiotic enhancement of doxycycline; type: cell-based; settings: for Dox/P.a.: fold change, ratio between intrinsic MIC of test compound and combination MIC: doxycycline at 4.5 µM; for Dox/P.a.: concentration required to restore doxycycline activity: doxycycline at 4.5 µM (2 µg/mL)
Procedure: Antibiotic restoring enhancer concentrations were determined using reported protocols (see Supplementary File).
Briefly, restoring enhancer concentrations were determined with an inoculum of 5x10^5 CFU in 200
µL of MHB containing two-fold serial dilutions of each derivative in the presence of doxycycline at 4.5
The lowest concentration of the polyamine
These measurements were independently repeated in triplicate. […]

[1] = system: C. neoformans ATCC 208821; experiment: MIC, CO-ADD antifungal assay, C. neoformans; type: cell-based, Cryptococcus neoformans; settings: for MIC: Cryptococcus neoformans, ATCC208821, mean (n = 2)
Procedure: (§1) The susceptibility of bacterial strains S. aureus (ATCC 25923), E. coli (ATCC 25922), and P. aeruginosa (ATCC 27853 or PAO1) to antibiotics and compounds was determined using reported protocols. Additional antimicrobial evaluation against MRSA (ATCC 43300), Klebsiella pneumoniae (ATCC 700603), A. baumannii (ATCC 19606), Candida albicans (ATCC 90028), and Cryptococcus neoformans (ATCC 208821) was undertaken at the Community for Open Antimicrobial Drug Discovery at The University of Queensland (Australia) according to their standard protocols as reported previously. […]
(§2) 2.3. Antimicrobial Assays
(§3) The susceptibility of bacterial strains S. aureus (ATCC 25923), E. coli (ATCC 25922), and P. […]
(§4) baumannii (ATCC 19606), Candida albicans (ATCC 90028), and Cryptococcus neoformans (ATCC 208821) was undertaken at the Community for Open Antimicrobial Drug Discovery at The University of Queensland (Australia) according to their standard protocols as reported previously. […]
(§5) For the antifungal assay, fungi strains were cultured for 3 days on YPD agar at 30 °C. A yeast suspension of 1 × 106 to 5 × 10^6 CFU/mL was prepared from five colonies. These stock suspensions were diluted with yeast nitrogen base (YNB) (Becton Dickinson, 233520) broth to a final concentration of 2.5 × 10^3 CFU/mL. The compounds were serially diluted 2-fold across the wells of 96-well plates (Corning 3641, non-binding surface), with compound concentrations ranging from 0.015 to 64 µg/mL and final volumes of 50 µL, plated in duplicate. Then, 50 µL of the fungi suspension that was previously prepared in YNB broth to the final concentration of 2.5 × 10^3 CFU/mL was added to each well of the compound-containing plates, giving a final compound concentration range of 0.008 to 32 µg/mL. Plates were covered and incubated at 35 °C for 36 h without shaking. C. albicans MICs were determined by measuring the absorbance at OD530. For C. neoformans, resazurin was added at 0.006% final concentration to each well and incubated for a further 3 h before MICs were determined by measuring […]
(§6) Colistin and vancomycin were used as positive bacterial inhibitor standards for Gram-negative and Gram-positive bacteria, respectively. Fluconazole was used as a positive fungal inhibitor standard for C. albicans and C. neoformans. The antibiotics were provided in […], with 3 above and 3 below its MIC value, and plated into the first 8 wells of column 23 of the 384-well NBS plates. The quality control (QC) of the assays was determined by the antimicrobial controls and the Z'-factor (using positive and negative controls). Each plate was deemed to fulfil the quality criteria (pass QC) if the Z'- […]
(§7) inhibition at their highest concentration, and no growth inhibition at their lowest concentration.
(§8) 2.4. Determination of the MICs of Antibiotics in the Presence of Synergizing Compounds

C. albicans ATCC 90028 = experiment: MIC, CO-ADD antifungal assay, C. albicans; type: cell-based, Candida albicans; settings: for MIC: Candida albicans, ATCC90028, mean (n = 2)
Procedure: as §1, §2, §3, §4, §5, §6, §7, §8

S. aureus ATCC 25923 = experiment: MIC, broth dilution, S. aureus; type: cell-based; settings: Staphylococcus aureus, ATCC25923, mean (n = 3)
Procedure: as §1, §2
The susceptibility of bacterial strains S. aureus (ATCC 25923), E. coli (ATCC 25922), and P. aeruginosa (ATCC 27853 or PAO1) to antibiotics and compounds was determined in microplates using the standard broth dilution method in accordance with the recommendations of the Comité de l’AntibioGramme de la Société Française de Microbiologie (CA-SFM). Briefly, the minimal inhibitory concentrations (MICs) were determined with an inoculum of 10^5 CFU in 200 µL of Mueller–Hinton broth (MHB) containing two-fold serial dilutions of each drug. The MIC was defined as the lowest […]
as §4, with “determine all MICs, the measurements were independently repeated in triplicate. Additional antimicrobial evaluation against MRSA (ATCC 43300), Klebsiella pneumoniae (ATCC 700603), A. baumannii” for “baumannii”
For C. neoformans, resazurin was added at 0.006% final concentration to each well and incubated for a further 3 h before MICs were determined by measuring […]
as §6, §7, §8

human red blood cells = experiment: Hemolytic assay; type: cell-based; settings: mean (n = 2)
Procedure: Hemolysis assays were conducted using reported protocols (see Supplementary File). […]
Human whole blood was washed three times with three volumes of 0.9% NaCl and then resuspended in the same solution to a concentration of 0.5 x 10^8 cells/mL, as determined by the manual cell count in a Neubauer hemocytometer. The washed cells were then added to the 384-well compound-containing plates for a final volume of 50 µL. After a 10 min shake on a plate shaker, the plates were then incubated for 1 h at 37 °C. After incubation, the plates were centrifuged at 1,000g for 10 min to pellet cells and debris; 25 µL of the supernatant was then transferred to a polystyrene 384-well assay plate. Hemolysis was determined by measuring the supernatant absorbance at […] (OD405). The absorbance was measured using a Tecan M1000 Pro monochromator plate reader. HC10 and HC50 (concentration at 10% and 50% hemolysis, respectively) were calculated by curve fitting the inhibition values vs. log (concentration) using a sigmoidal dose–response function with variable fitting values for the top, bottom, and slope. […]

Compound	Dox/P.a.: fold change, ratio between intrinsic MIC of test compound and combination MIC (P. aeruginosa ATCC 27853)	Dox/P.a.: concentration required to restore doxycycline activity (P. aeruginosa ATCC 27853) [µM]	MIC [1] [µM]	MIC (C. albicans ATCC 90028) [µM]	MIC (S. aureus ATCC 25923) [µM]	Hemolysis (HC10), concentration of compound at 10% hemolytic activity (human red blood cells) [µM]	MIC C.n. ([1]; mean (n = 2))	MIC C.a. (C. albicans ATCC 90028; mean (n = 2))
C=C[C@]1(C)C[C@@H](OC(=O)CNCCCNCCCCNCCCNCC(=O)O[C@@H]2C[C@@](C)(C=C)[C@@H](O)[C@H](C)[C@]34CCC(=O)[C@H]3[C@@]2(C)[C@H](C)CC4)[C@]2(C)[C@H](C)CC[C@]3(CCC(=O)[C@H]32)[C@@H](C)[C@@H]1O.O=C(O)C(F)(F)F.O=C(O)C(F)(F)F.O=C(O)C(F)(F)F.O=C(O)C(F)(F)F [Compound 9a, N^1,N^1′-(Butane-1,4-diyl)bis(N^3-(2-(((3aR,4R,5R,7S,8S,9R,9aS,12R)-8-hydroxy-4,7,9,12-tetramethyl-3-oxo-7-vinyldecahydro-4,9a-propanocyclopenta [8]annulen-5-yl)oxy)-2-oxoethyl)propane-1,3-diaminium) 2,2,2-trifluoroacetate]	4	18.1	0.72	> 23.2	18.1	>23.2		
C=C[C@]1(C)C[C@@H](OC(=O)CNCCCNCCCCCCCCNCCCNCC(=O)O[C@@H]2C[C@@](C)(C=C)[C@@H](O)[C@H](C)[C@]34CCC(=O)[C@H]3[C@@]2(C)[C@H](C)CC4)[C@]2(C)[C@H](C)CC[C@]3(CCC(=O)[C@H]32)[C@@H](C)[C@@H]1O.O=C(O)C(F)(F)F.O=C(O)C(F)(F)F.O=C(O)C(F)(F)F.O=C(O)C(F)(F)F [Compound 9d, N^1,N^1′-(Octane-1,8-diyl)bis(N^3-(2-(((3aR,4R,5R,7S,8S,9R,9aS,12R)-8-hydroxy-4,7,9,12-tetramethyl-3-oxo-7-vinyldecahydro-4,9a-propanocyclopenta [8]annulen-5-yl)oxy)-2-oxoethyl)propane-1,3-diaminium) 2,2,2-trifluoroacetate]	1	139	≤ 0.17	> 22.3	34.8	>22.3		
C=C[C@]1(C)C[C@@H](OC(=O)CSCCN(CC)CC)[C@]2(C)[C@H](C)CC[C@]3(CCC(=O)[C@H]32)[C@@H](C)[C@@H]1O [Compound 2, Tiamulin, reference compound]		> 405	> 64.8	> 64.8	3.12	>64.8	no activity	no activity
C=C[C@]1(C)C[C@@H](OC(=O)CNCCCNCCCCCCCNCCCNCC(=O)O[C@@H]2C[C@@](C)(C=C)[C@@H](O)[C@H](C)[C@]34CCC(=O)[C@H]3[C@@]2(C)[C@H](C)CC4)[C@]2(C)[C@H](C)CC[C@]3(CCC(=O)[C@H]32)[C@@H](C)[C@@H]1O.O=C(O)C(F)(F)F.O=C(O)C(F)(F)F.O=C(O)C(F)(F)F.O=C(O)C(F)(F)F [Compound 9c, N^1,N^1′-(Heptane-1,7-diyl)bis(N^3-(2-(((3aR,4R,5R,7S,8S,9R,9aS,12R)-8-hydroxy-4,7,9,12-tetramethyl-3-oxo-7-vinyldecahydro-4,9a-propanocyclopenta [8]annulen-5-yl)oxy)-2-oxoethyl)propane-1,3-diaminium) 2,2,2-trifluoroacetate]	1	141	≤ 0.18	> 22.5	17.6	>22.5		
C=C[C@]1(C)C[C@@H](OC(=O)CNCCCNCCCCCCCCCCNCCCNCC(=O)O[C@@H]2C[C@@](C)(C=C)[C@@H](O)[C@H](C)[C@]34CCC(=O)[C@H]3[C@@]2(C)[C@H](C)CC4)[C@]2(C)[C@H](C)CC[C@]3(CCC(=O)[C@H]32)[C@@H](C)[C@@H]1O.O=C(O)C(F)(F)F.O=C(O)C(F)(F)F.O=C(O)C(F)(F)F.O=C(O)C(F)(F)F [Compound 9e, N^1,N^1′-(Decane-1,10-diyl)bis(N^3-(2-(((3aR,4R,5R,7S,8S,9R,9aS,12R)-8-hydroxy-4,7,9,12-tetramethyl-3-oxo-7-vinyldecahydro-4,9a-propanocyclopenta [8]annulen-5-yl)oxy)-2-oxoethyl)propane-1,3-diaminium) 2,2,2-trifluoroacetate]	2	34.2	≤ 0.17	10.9	4.27	>21.9		
C=C[C@]1(C)C[C@@H](OC(=O)CNCCCNCCCCCCCCCCCCNCCCNCC(=O)O[C@@H]2C[C@@](C)(C=C)[C@@H](O)[C@H](C)[C@]34CCC(=O)[C@H]3[C@@]2(C)[C@H](C)CC4)[C@]2(C)[C@H](C)CC[C@]3(CCC(=O)[C@H]32)[C@@H](C)[C@@H]1O.O=C(O)C(F)(F)F.O=C(O)C(F)(F)F.O=C(O)C(F)(F)F.O=C(O)C(F)(F)F [Compound 9f, N^1,N^1′-(Dodecane-1,12-diyl)bis(N^3-(2-(((3aR,4R,5R,7S,8S,9R,9aS,12R)-8-hydroxy-4,7,9,12-tetramethyl-3-oxo-7-vinyldecahydro-4,9a-propanocyclopenta [8]annulen-5-yl)oxy)-2-oxoethyl)propane-1,3-diaminium) 2,2,2-trifluoroacetate]	4	8.38	≤ 0.17	21.5	2.1	13.2		
